Results published in US10532085B2, “Methods for increasing intracellular activity of Hsp70” (Orphazyme A/S, priority 2010, dated 2020).

Legend:
[1] = tested on: primary fibroblasts from Mucopolysaccharidosis type IVA patient; assay: Lysosomal cross-sectional area, laser confocal microscopy, MPS IVA fibroblasts; format: cell-based, human; conditions: Alexa Fluor 488 labelled, added for 48 h; GM00958
Procedure: FIG. 9: Test of rhHSP70 in non-sphingolipidosis. rhHSP70 labelled with Alexa Fluor 488 (for visualization of uptake) was added for 48 h to primary fibroblasts from Mucopolysaccharidosis type IVA (aka (Morbus) Morquio type IVA) patient (Coriell Cell Repository ID: GM00958). Read-out: lysosomal cross-sectional area (Primary cellular pathology), performed by laser confocal microscopy.

MCF-7-LC3-EGFP cells = assay: Autophagy induction (LC3-EGFP translocation); format: cell-based, human; conditions: 20 μg/mL added to culture medium
Source text: FIG. 11: rhHSP70 induces autophagy in MCF-7-LC3-EGFP cells.

U-2-OS cells = assay: Lysosomal integrity upon photo-oxidation (acridine orange and blue light); format: cell-based, Human
Procedure: FIG. 2: Lysosomal Hsp70 stabilizes lysosomal membranes. (a) Representative confocal images of U-2-OS cells incubated with 300 nM rHsp70-AF488 (green) for 24 h, fixed and stained for lysosomal integral membrane protein-1 (LIMP-1; red). For co-localization with other organelle markers see FIG. 3. (b) U-2-OS cells were incubated with 300 nM rHsp70-AF488 for 24 h before quantification of rHsp70-AF488 in membranes (memb.) and supernatant (sup.) obtained by repeated freeze/thaw cycles and centrifugation the light membrane fraction (LMF). […] (c) Representative still images of U-2-OS cells exposed to photo-oxidation (acridine orange and blue light). The loss of lysosomal integrity is visualized by the loss of red and increase in green staining. (d and e) U-2-OS cells were incubated with indicated recombinant proteins (300 nM) for 24 h, and analyzed for lysosomal integrity upon photo-oxidation. When indicated, cells were treated with indicated siRNAs for 48 h prior to the addition of recombinant proteins (e). The values represent means±SD (standard deviation) for three (d) or five (e) independent experiments. Representative immunoblots of indicated proteins from U-2-OS cells left untreated or treated with control or Hsp70 siRNAs are shown on the right. Scale bars: 20 μm (a and c).
WT- and Hsp70-MEFs were generated, immortalized and maintained as described in the art. Human NPDA fibroblasts (83/24) originate from a skin biopsy of a patient with hepatosplenomegaly. Recombinant proteins were generated using the pET-16b vector system and Ni^2+-affinity-purification (Novagen), and labeled with Alexa Fluor 488 according to manufacturers protocol (Molecular Probes). To analyze the lysosomal integrity, we developed a real time imaging method of cells stained with acridine orange, a metachromatic weak base that accumulates in the acidic compartment of the cells staining them red and sensitizing them to photo-oxidation. The photo-oxidation-induced loss of the lysosomal pH-gradient and leakage of acridine orange to the cytosol from individual lysosomes was quantified visually as “loss of red dots” in U2-O—S cells and as a decrease in red and an increase in green fluorescence by Zeiss LSM DUO Software in fibroblasts. The total and cytoplasmic (digitonin-extracted) cathepsin activities were measured in digitonin-treated samples using zFR-AFC (Enzyme System Products) probe as described in the art. The tryptophan fluorescence spectra and liposome 90° light scattering were analyzed in a HEPES buffer (20 mM HEPES, 0.1 mM EDTA, pH as indicated) essentially as described in the art. Surface plasmon resonance measurements were performed with immobilized LUVs using a BIAcore 2000 system as described in the art. Hsp70 siRNA (5′-[…]-3′) and a […] were transfected with Oligofectamine (Invitrogen). Immunodetection was performed with standard protocols. Apoptosis-like cell death and lysosomal membrane permeabilization were analyzed essentially as described in the art. ASM activity was analyzed by Amplex Red Sphingomyelinase Assay Kit (A12220) from Molecular Probes with modifications described in the art. Statistical analysis was performed using a two-tailed, paired Student's T-test and all groups of data were tested for the comparability of their variances using an F-test.
Sub-confluent cells incubated with 2 μg/ml acridine orange for 15 min at 37° C. were washed, irradiated and analyzed in Hanks balanced salt solution complemented with 3% fetal calf serum. Cells for single cell imaging were selected from 8 pre-defined areas of each well in transmitted light-mode after which the same cells were immediately visualized and exposed to blue light from USH102 100W mercury arc burner (Ushio electric) installed in a U-ULS100HG housing (Olympus) for 20 sec. Fluorescence microscopy was performed on Olympus IX-70 inverted microscope with a LCPlanF1 ×20 objective with NA=0.40. […]

[2] = Liposome 90° light scattering, BMP; format: binding; conditions: pH 6.0 vs pH 7.4
Source text: Thus, we investigated the interaction of Hsp70 with palmitoyl-oleoyl-phosphatidylcholine (POPC) large unilamellar vesicles (LUVs) containing various membrane-associated anionic lipids, i.e. palmitoyl-oleoyl-phosphatidylserine (POPS; primarily in plasma membrane), cardiolipin (primarily mitochondrial) and BMP (primarily in late endosomes/lysosomes). Taking into account the increasingly acidic milieu of the endo-lysosomal compartment upon maturation to lysosomes, we compared the protein-lipid interactions in neutral (pH 7.4) and acidic (pH 6.0) conditions. […] As reported earlier for POPS, all negatively charged lipids enhanced the binding of rHsp70 to the liposomes at neutral pH approximately 4-fold irrespective of the charge density on the liposome surface (ranging from −1 to −2).
The tryptophan fluorescence spectra (RFI) and liposome 90° light scattering (RSI) were analyzed in a HEPES buffer (20 mM HEPES, 0.1 mM EDTA, pH 7.4 or 6.0 as indicated) employing LUVs consisting of indicated lipids essentially as described in the art. For the RFI, LUVs were added in 10 μM aliquots and spectra recorded after a 20 min stabilization period. For the RSI, recombinant proteins were added in 0.12 nmol aliquots.

NPC−/− mice = assay: NPC1 in vivo pilot study: rearing analysis
Procedure: Eight treated (rHSP70) NPC^−/− versus eight control (PBS only) NPC^−/− controls. Mice were treated IP three times per week with either 10 mg/kg of rHSP70 or vehicle alone (PBS) from 3 weeks of age. Three control and three treated mice were sacrificed at 7 or 9 weeks old (i.e. after 4 or 6 weeks of treatment, respectively). Organs were perfused (PBS), weighed and frozen for biochemical and immunohistochemical analysis.
Rearing analysis was performed only at 9 and 10 weeks of age. Briefly, animals are allowed to acclimatise in an open field box. After 5′, counts are made of the activity of the mice including the number of times the animal rears in the centre of the box without support, or at the edges of the box using the walls for support.

rHsp70: recombinant (human) heat shock protein 70; in some tests labelled with Alexa Fluor 488
lysosomal cross-sectional area (primary cellular pathology) [1]: effectively reverts the lysosomal primary pathology | translocation and accumulation of LC3-EGFP (marker for macroautophagy) (MCF-7-LC3-EGFP cells): leads to translocation and accumulation of LC3-EGFP | protection of lysosomes against photo-oxidation (lysosomal stabilization) (U-2-OS cells; recombinant proteins 300 nM, 24 h): protected lysosomes against photo-oxidation | reversal of Hsp70 siRNA-induced sensitization to photo-oxidation (U-2-OS cells; siRNA 48 h prior to addition of recombinant protein (300 nM)): fully reverted | binding to BMP at acidic pH as compared to neutral pH [2]: ~20 times | rearing (NPC−/− mice; after 6 treatment weeks): no difference | successfully completed vs failed rearing events (NPC−/− mice; at 9 weeks, n=5 treated, n=4 control): only control mice failed to complete rearings
